Data as given in patent US11821001B2, “Cell culture medium for eukaryotic cells” (Regeneron Pharmaceuticals, Inc., priority 2019, dated 2023).

Tested on: titer of VEGFR binding protein 1
Experiment: Correlation and regression of component concentration against protein titer of VEGFR binding protein 1
Assay type: cell-based
Conditions: regression line; for protein titer versus concentration of the component in the cell culture medium: N=70, extrapolated estimation from soy hydrolysate data, FIG. 3 / FIG. 5; for protein titer versus concentration of the component in the soy hydrolysate added to the cell culture medium: N=70, enriched medium (soy hydrolysate), FIG. 2 / FIG. 4
Protocol: The impact of 5-methythioadenosine on production of a recombinant protein (VEGFR binding protein 1) was studied by investigating the protein titer (g/L) at different concentrations of 5-methythioadenosine present in the cell culture medium.
An enriched medium (soy hydrolysate) comprising 5-methythioadenosine was added to the cell culture medium.
Based on the correlation data obtained from studying the effect of 5-methythioadenosine concentrations in the enriched medium (soy hydrolysate) supplemented to the cell culture medium (Example 2, FIG. 2), an estimation as to the optimum concentration of 5-MTA in a cell culture was made.
The impact of nicotinamide on a recombinant protein (VEGFR binding protein 1) titer was also studied by investigating the protein titer (g/L) at different concentrations of nicotinamide present in the cell culture medium.
An enriched medium (soy hydrolysate) comprising nicotinamide was added to the cell culture medium at varying concentrations.
Based on the correlation data obtained from studying the effect of nicotinamide concentration in enriched medium (soy hydrolysate) supplemented to the cell culture medium (Example 4, FIG. 4), an estimation as to the optimum concentration of nicotinamide in a cell culture was made.

Structure (SMILES)	protein titer versus concentration of the component in the cell culture medium	protein titer versus concentration of the component in the soy hydrolysate added to the cell culture medium
NC(=O)c1cccnc1 [Nicotinamide, 3-Pyridinecarboxamide]	titer can vary linearly	titer varied linearly
CSC[C@H]1O[C@@H](n2cnc3c(N)ncnc32)[C@H](O)[C@@H]1O [5-methylthioadenosine (MTA), 5-Deoxy-5′-methylthioadenosine]	titer can vary linearly	titer varied linearly
